Measurements published in ChEMBL document CHEMBL1131645, “Synthesis and activity studies of N-[omega-N'-(adamant-1'-yl)aminoalkyl]- 2-(4'-dimethylaminophenyl)acetamides: in the search of selective inhibitors for the different molecular forms of acetylcholinesterase” (Bioorg Med Chem Lett, 1998).

Key:
[1] = molecular target: T1, Acetylcholinesterase (Torpedo californica, UniProt P04058); assay: Compound was evaluated for competitive inhibition constant of acetylcholinesterase (AChE) from Torpedo californica; design: species or system Tetronarce californica
T1 sequence (P04058 whole entry): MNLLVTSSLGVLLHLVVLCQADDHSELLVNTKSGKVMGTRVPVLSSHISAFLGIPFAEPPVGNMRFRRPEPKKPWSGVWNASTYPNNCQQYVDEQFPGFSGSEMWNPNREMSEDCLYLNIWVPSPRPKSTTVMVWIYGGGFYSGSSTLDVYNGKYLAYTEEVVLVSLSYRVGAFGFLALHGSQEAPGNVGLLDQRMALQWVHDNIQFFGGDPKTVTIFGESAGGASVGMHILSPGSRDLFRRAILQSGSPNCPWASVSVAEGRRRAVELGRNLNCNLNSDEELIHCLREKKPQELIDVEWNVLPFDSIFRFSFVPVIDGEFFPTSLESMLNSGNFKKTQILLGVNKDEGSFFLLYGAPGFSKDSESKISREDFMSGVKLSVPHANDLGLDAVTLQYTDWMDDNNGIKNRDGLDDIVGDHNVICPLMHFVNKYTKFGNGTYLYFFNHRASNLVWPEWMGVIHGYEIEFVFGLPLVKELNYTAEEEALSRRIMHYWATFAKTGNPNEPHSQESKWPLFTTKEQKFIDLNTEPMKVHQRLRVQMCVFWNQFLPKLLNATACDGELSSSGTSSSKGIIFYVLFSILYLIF

[2] = molecular target: T2, Acetylcholinesterase (Bos taurus, UniProt P23795); assay: Compound was evaluated for the inhibition of acetylcholinesterase (AChE) in bovine erythrocytes; assay type: cell-based
T2 sequence (P23795 whole entry): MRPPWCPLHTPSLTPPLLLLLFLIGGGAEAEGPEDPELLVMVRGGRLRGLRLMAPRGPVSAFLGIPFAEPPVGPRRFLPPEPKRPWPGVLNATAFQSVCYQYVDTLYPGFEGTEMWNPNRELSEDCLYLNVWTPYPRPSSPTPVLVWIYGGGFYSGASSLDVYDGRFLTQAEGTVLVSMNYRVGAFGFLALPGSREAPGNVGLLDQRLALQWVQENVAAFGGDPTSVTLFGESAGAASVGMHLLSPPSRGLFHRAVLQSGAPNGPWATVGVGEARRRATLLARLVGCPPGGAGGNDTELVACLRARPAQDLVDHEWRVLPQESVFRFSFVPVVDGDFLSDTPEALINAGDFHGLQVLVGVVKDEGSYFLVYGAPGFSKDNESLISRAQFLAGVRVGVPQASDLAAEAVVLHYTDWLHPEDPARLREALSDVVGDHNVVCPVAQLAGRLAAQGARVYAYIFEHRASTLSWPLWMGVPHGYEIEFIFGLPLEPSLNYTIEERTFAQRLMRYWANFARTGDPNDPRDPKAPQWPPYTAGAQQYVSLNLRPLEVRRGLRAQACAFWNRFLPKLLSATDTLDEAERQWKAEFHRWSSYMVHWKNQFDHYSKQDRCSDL

[3] = molecular target: T2, Acetylcholinesterase
Description: Compound was evaluated for the inhibition of acetylcholinesterase (AChE) in bovine brain

[4] = molecular target: Acetylcholinesterase (Homo sapiens, UniProt P22303)
Acetylcholinesterase (Homo sapiens, UniProt P22303), sequence (P22303 whole entry): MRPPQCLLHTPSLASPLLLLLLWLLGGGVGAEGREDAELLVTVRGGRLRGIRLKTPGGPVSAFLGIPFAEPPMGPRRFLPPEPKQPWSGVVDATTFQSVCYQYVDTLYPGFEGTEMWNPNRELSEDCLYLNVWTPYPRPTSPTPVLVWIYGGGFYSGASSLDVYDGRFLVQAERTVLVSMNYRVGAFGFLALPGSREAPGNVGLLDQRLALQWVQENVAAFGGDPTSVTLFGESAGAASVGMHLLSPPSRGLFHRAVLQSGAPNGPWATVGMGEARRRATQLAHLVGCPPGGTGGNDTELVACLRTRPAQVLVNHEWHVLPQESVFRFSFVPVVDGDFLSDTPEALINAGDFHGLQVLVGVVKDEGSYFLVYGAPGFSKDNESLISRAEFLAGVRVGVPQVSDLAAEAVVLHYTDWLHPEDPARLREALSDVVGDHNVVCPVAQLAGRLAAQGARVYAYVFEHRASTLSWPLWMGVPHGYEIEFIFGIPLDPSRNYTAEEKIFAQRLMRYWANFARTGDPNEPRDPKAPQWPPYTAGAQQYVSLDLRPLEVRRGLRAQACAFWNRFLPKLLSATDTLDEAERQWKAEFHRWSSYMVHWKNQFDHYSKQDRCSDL
Description: Compound was evaluated for the inhibition of acetylcholinesterase (AChE) in human erythrocytes

[5] = molecular target: T1, Acetylcholinesterase; assay: Compound was evaluated for the inhibition of acetylcholinesterase in Torpedo californica; design: species or system Tetronarce californica
[6] = molecular target: T3, Acetylcholinesterase (Electrophorus electricus, UniProt O42275)
T3 sequence (O42275 whole entry): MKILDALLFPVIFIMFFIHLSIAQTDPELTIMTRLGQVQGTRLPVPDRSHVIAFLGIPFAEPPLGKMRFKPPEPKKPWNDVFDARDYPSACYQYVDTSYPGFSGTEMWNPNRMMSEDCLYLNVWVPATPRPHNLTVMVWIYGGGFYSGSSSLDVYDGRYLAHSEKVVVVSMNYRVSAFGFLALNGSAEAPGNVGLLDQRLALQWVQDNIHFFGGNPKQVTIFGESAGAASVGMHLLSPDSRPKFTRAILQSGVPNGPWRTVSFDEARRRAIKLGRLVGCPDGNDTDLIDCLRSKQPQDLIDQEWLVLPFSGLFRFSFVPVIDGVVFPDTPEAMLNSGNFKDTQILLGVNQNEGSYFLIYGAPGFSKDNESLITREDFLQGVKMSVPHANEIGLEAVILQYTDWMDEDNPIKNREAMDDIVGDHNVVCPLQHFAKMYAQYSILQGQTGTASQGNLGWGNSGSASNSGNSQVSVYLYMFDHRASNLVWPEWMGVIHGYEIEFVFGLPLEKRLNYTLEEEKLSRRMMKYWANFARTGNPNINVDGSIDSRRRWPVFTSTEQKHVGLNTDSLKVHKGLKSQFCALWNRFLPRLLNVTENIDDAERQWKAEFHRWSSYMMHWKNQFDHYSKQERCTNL
Description: Compound was evaluated for the inhibition of acetylcholinesterase (AChE) in electric eel

[7] = molecular target: Acetylcholinesterase (Torpedo californica) (UniProt P04058); assay: Compound was evaluated for non-competitive inhibition constant of acetylcholinesterase (AChE) from Torpedo californica; conditions: Tetronarce californica
Acetylcholinesterase (Torpedo californica), sequence (P04058 22-564 limits assumed): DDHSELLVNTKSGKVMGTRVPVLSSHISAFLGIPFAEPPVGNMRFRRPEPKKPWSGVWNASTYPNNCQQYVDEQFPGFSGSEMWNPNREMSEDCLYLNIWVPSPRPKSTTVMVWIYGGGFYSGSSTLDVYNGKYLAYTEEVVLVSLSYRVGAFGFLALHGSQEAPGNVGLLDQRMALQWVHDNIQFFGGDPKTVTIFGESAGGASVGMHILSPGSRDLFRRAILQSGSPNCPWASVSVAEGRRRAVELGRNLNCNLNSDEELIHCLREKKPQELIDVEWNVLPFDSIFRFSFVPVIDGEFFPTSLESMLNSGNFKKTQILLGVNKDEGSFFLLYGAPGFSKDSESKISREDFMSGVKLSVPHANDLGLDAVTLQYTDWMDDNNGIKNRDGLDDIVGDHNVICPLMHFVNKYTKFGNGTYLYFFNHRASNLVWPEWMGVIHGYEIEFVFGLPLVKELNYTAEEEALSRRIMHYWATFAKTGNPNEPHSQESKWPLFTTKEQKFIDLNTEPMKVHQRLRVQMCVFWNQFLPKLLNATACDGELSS

[8] = molecular target: T3, Acetylcholinesterase; assay: Compound was evaluated for the inhibition of acetylcholinesterase in electric eel
[9] = molecular target: T2, Acetylcholinesterase; remark: listed apart in the source
[10] = molecular target: T1, Acetylcholinesterase
Description: Compound was evaluated for the inhibition of acetylcholinesterase (AChE) in Torpedo californica

Structure (SMILES) | Ki [1] | IC50 [2] | IC50 [3] | IC50 [4] | IC50 [5] | IC50 [6] | KI' [7] | IC50 [8] | IC50 [9] | IC50 [10]
CN(C)c1ccc(CC(=O)NCCCCCCCCNC23CC4CC(CC(C4)C2)C3)cc1 | 5.5 µM | > 100 µM | > 100 µM | > 100 µM | 10 µM | 28 µM | 10 µM | – | – | –
CN(C)c1ccc(CC(=O)NCCCCCCCCCCNC23CC4CC(CC(C4)C2)C3)cc1 | 2.5 µM | – | 77 µM | > 100 µM | 5.3 µM | – | 5.3 µM | 14 µM | 95 µM | –
CN(C)c1ccc(CC(=O)NCCCCCCCCCCCNC23CC4CC(CC(C4)C2)C3)cc1 | 2.1 µM | – | – | – | – | – | 5.2 µM | – | – | –
CN(C)c1ccc(CC(=O)NCCCCCCCCCCCCNC23CC4CC(CC(C4)C2)C3)cc1 | 1.8 µM | – | 20 µM | > 100 µM | – | 8.9 µM | 4.1 µM | – | 19 µM | 3.3 µM
CN(C)c1ccc(CC(=O)NCCCCCCCNC23CC4CC(CC(C4)C2)C3)cc1 | 7 µM | – | – | – | – | – | 13 µM | – | – | –
CN(C)c1ccc(CC(=O)NCCCCCCCCCNC23CC4CC(CC(C4)C2)C3)cc1 | 3.4 µM | – | – | – | – | – | 7 µM | – | – | –
